# According to ChEMBL document CHEMBL1122565, “Quantitative structure-activity relationships of 6-anilinouracils as inhibitors of Bacillus subtilis DNA polymerase III” (J Med Chem, 1984):
# Target: DNA polymerase III PolC-type (Bacillus subtilis (strain 168), UniProt P13267)
# Experiment: Inhibition constant against Bacillus subtilis DNA polymerase III (wild type).
# Details: read-out: Log 1/Ki (converted)
# Sequence of DNA polymerase III PolC-type (P13267 whole entry): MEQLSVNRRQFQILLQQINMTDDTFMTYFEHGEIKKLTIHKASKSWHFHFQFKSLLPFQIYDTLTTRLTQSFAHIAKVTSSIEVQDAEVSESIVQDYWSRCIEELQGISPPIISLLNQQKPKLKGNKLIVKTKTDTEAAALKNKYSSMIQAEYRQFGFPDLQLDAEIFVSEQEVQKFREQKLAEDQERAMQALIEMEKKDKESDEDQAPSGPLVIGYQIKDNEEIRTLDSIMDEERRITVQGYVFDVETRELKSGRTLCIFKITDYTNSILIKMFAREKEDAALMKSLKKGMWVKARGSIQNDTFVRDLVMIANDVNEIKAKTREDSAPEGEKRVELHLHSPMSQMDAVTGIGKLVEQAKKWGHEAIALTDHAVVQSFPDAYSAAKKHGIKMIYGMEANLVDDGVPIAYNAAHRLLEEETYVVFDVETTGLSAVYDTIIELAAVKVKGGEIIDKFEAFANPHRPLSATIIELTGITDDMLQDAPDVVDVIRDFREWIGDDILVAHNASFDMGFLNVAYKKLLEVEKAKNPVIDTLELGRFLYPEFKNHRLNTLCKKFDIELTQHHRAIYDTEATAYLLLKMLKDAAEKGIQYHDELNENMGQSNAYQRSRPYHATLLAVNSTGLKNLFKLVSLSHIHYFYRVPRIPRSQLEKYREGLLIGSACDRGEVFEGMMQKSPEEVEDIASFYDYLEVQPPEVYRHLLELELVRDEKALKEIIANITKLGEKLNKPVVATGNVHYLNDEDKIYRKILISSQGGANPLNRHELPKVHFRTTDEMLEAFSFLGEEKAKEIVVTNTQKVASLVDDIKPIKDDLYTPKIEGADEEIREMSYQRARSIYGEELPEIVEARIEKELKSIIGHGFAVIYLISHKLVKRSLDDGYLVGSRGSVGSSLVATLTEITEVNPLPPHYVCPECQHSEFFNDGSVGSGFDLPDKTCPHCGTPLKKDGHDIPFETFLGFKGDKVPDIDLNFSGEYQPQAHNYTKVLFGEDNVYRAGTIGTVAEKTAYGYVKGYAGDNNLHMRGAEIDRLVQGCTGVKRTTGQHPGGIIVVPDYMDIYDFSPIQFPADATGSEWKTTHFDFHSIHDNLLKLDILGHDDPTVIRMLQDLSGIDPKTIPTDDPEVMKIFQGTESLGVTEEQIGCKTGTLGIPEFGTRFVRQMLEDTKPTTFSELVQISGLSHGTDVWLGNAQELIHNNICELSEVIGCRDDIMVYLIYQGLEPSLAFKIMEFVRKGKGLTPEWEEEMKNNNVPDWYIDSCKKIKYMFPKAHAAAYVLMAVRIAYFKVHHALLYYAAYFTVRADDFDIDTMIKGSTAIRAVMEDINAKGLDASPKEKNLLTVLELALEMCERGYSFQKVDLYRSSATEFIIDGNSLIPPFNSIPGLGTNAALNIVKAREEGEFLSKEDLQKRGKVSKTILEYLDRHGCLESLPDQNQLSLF
row,SMILES,Ki [µM]
1,CCc1cc(Nc2cc(=O)[nH]c(=O)[nH]2)ccc1C,0.19
2,CCCCc1ccc(Nc2cc(O)nc(O)n2)cc1C,692
3,CCCCc1cccc(Nc2cc(O)nc(O)n2)c1,695
4,CCc1ccc(Nc2cc(=O)[nH]c(=O)[nH]2)cc1C,19
5,CCCc1ccc(Nc2cc(O)nc(O)n2)cc1C,97.9
6,CCCc1cccc(Nc2cc(O)nc(O)n2)c1,17

# Target: DNA polymerase III (Bacillus subtilis)
# Experiment: Inhibition constant against Bacillus subtilis azp-12 DNA polymerase III (mutant enzyme).
# Details: not given
row,SMILES,Log 1/Ki
1,Oc1cc(Nc2cccc(Br)c2)nc(O)n1,4.66
2,CC(=O)Nc1ccc(Nc2cc(O)nc(O)n2)cc1C,2.81
3,OCc1cccc(Nc2cc(O)nc(O)n2)c1,2.29
4,CC(=O)Nc1cc(Nc2cc(O)nc(O)n2)ccc1C,2.726
5,Nc1ccc(Nc2cc(O)nc(O)n2)cc1,2.409
6,CCCc1ccc(Nc2cc(O)nc(O)n2)cc1,4.278
7,Cc1cccc(Nc2cc(O)nc(O)n2)c1,3.75
8,CCCCc1ccc(Nc2cc(O)nc(O)n2)cc1C,3.879
9,Cc1cc(Nc2cc(O)nc(O)n2)ccc1N,3.801
10,CCCc1ccc(Nc2cc(O)nc(O)n2)cc1C,4.86
11,Cc1ccc(Nc2cc(O)nc(O)n2)cc1C,5.456
12,COc1ccc(Nc2cc(O)nc(O)n2)cc1,3.921
13,Oc1cc(Nc2cccc(Cl)c2)nc(O)n1,4.38
14,Cc1ccc(Nc2cc(O)nc(O)n2)cc1I,6.553
